Seven molecules from publication PMC6757289, “Design and Characterization of SGK3-PROTAC1, an Isoform Specific SGK3 Kinase PROTAC Degrader” (ACS Chemical Biology, 2019) can be followed below.

The assay concerns the target T1, SGK3 (Homo sapiens, UniProt Q96BR1).
T1 sequence (Q96BR1 1-496): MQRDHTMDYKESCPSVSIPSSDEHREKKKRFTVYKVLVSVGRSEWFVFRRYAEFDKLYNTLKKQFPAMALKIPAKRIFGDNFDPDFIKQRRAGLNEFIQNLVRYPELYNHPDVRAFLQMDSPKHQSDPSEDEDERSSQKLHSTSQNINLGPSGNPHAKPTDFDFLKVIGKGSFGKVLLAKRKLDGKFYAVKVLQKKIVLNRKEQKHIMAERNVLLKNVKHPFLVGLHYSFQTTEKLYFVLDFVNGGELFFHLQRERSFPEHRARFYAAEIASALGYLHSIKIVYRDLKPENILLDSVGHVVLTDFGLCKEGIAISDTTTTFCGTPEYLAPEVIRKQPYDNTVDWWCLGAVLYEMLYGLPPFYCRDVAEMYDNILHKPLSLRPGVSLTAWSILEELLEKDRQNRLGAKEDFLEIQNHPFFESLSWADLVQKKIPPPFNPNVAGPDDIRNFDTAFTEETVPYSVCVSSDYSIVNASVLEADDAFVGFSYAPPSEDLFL
Kind of assay: SGK3 degradation in HEK293 cells, immunoblot. As to conditions: for remaining activity at 0.001 µM / remaining activity at 0.01 µM / remaining activity at 0.1 µM / remaining activity at 1 µM / remaining activity at 10 µM: Figure 2. On the set-up: reduced endogenous SGK isoform or S6K1 expression when administered to HEK293 cells for 48 h; endogenous in cells; host or cells: HEK293; Dmax: dose or concentration left out as unconfirmed. Format: cell-based. On the procedure: Figure 1 Design and cellular activity of first generation SGK3 PROTACs. (A) Structure of compound 14H, previously published by Sanofi as an inhibitor of SGK3. (B) Starting material for SGK PROTACs. […] (C) Structures of first generation SGK PROTACs. SGK and E3 ligase targeting motifs were joined by a 3xPEG linker to produce the PROTACs. (D) HEK293 cells were treated for 48 h with increasing concentrations of each PROTAC compound from 0.1 nM to 10 μM. Cell lysates were subjected to immunoblot analysis with the indicated antibodies, and SGK3 protein levels were quantified in Image Studio Lite software (Licor).
Figure 2 Design and cellular evaluation of second and third generation SGK PROTACs. (A) Chemical structure of compounds DAT5–12, expanding upon DAT1. (B) Chemical structure of cisSGK3-PROTAC1. (C) HEK293 cells were treated for 48 h with increasing concentrations of each PROTAC compound from 1 nM to 10 μM. Cell lysates were subjected to immunoblot analysis with the indicated antibodies, and SGK3 protein levels quantified in Image Studio Lite software. (D) HEK293 cells were treated for 48 h with increasing concentrations of each PROTAC compound from 1 nM to 10 μM. Cell lysates were subjected to immunoblot analysis with the indicated antibodies, and SGK3 and S6K1 protein levels were quantified in Image Studio Lite software. TEXT PRINTED IN THE PICTURE: (C) DAT1: % SGK3: 100 (48h Treatment (μM): 0); % SGK3: 94 (48h Treatment (μM): 0.001); % SGK3: 82 (48h Treatment (μM): 0.01); % SGK3: 70 (48h Treatment (μM): 0.1); % SGK3: 52 (48h Treatment (μM): 1); % SGK3: 31 (48h Treatment (μM): 10) | (C) DAT5: % SGK3: 100 (48h Treatment (μM): 0); % SGK3: 104 (48h Treatment (μM): 0.001); % SGK3: 82 (48h Treatment (μM): 0.01); % SGK3: 92 (48h Treatment (μM): 0.1); % SGK3: 73 (48h Treatment (μM): 1); % SGK3: 36 (48h Treatment (μM): 10) | (C) DAT6: % SGK3: 100 (48h Treatment (μM): 0); % SGK3: 105 (48h Treatment (μM): 0.001); % SGK3: 90 (48h Treatment (μM): 0.01); % SGK3: 71 (48h Treatment (μM): 0.1); % SGK3: 44 (48h Treatment (μM): 1); % SGK3: 20 (48h Treatment (μM): 10) | (C) DAT7: % SGK3: 100 (48h Treatment (μM): 0); % SGK3: 77 (48h Treatment (μM): 0.001); % SGK3: 80 (48h Treatment (μM): 0.01); % SGK3: 95 (48h Treatment (μM): 0.1); % SGK3: 37 (48h Treatment (μM): 1); % SGK3: 29 (48h Treatment (μM): 10) | (D) DAT8: % SGK3: 100 (48h Treatment (μM): 0); % SGK3: 97 (48h Treatment (μM): 0.001); % SGK3: 107 (48h Treatment (μM): 0.01); % SGK3: 34 (48h Treatment (μM): 0.1); % SGK3: 24 (48h Treatment (μM): 1); % SGK3: 19 (48h Treatment (μM): 10) | (D) DAT9: % SGK3: 100 (48h Treatment (μM): 0); % SGK3: 105 (48h Treatment (μM): 0.001); % SGK3: 71 (48h Treatment (μM): 0.01); % SGK3: 40 (48h Treatment (μM): 0.1); % SGK3: 11 (48h Treatment (μM): 1); % SGK3: 12 (48h Treatment (μM): 10) | (D) DAT10: % SGK3: 100 (48h Treatment (μM): 0); % SGK3: 100 (48h Treatment (μM): 0.001); % SGK3: 76 (48h Treatment (μM): 0.01); % SGK3: 54 (48h Treatment (μM): 0.1); % SGK3: 11 (48h Treatment (μM): 1); % SGK3: 9 (48h Treatment (μM): 10) | (D) DAT11: % SGK3: 100 (48h Treatment (μM): 0); % SGK3: 96 (48h Treatment (μM): 0.001); % SGK3: 97 (48h Treatment (μM): 0.01); % SGK3: 41 (48h Treatment (μM): 0.1); % SGK3: 32 (48h Treatment (μM): 1); % SGK3: 29 (48h Treatment (μM): 10) | (D) DAT12: % SGK3: 100 (48h Treatment (μM): 0); % SGK3: 106 (48h Treatment (μM): 0.001); % SGK3: 84 (48h Treatment (μM): 0.01); % SGK3: 79 (48h Treatment (μM): 0.1); % SGK3: 32 (48h Treatment (μM): 1); % SGK3: 29 (48h Treatment (μM): 10) DOUBTS OF THE COPYIST ABOUT THIS PICTURE: All % SGK3 values are quantification numbers printed under immunoblot lanes; each was assigned to a concentration by lane position / DAT9 and DAT10, % SGK3: the first numbers are printed run together ('100105', '100100') and were split as 100 | 105 and 100 | 100
Figure 3 Characterization of cellular activities of SGK3-PROTAC1 and cisSGK3-PROTAC1. […]

The mark [1] stands for this setting: HEK293, washout after 24 h of treatment.

Structures are written as SMILES.

A word on the remaining activity: it is the signal under treatment as a percentage of the control signal. Turning to `Cc1ccc(F)c(S(=O)(=O)Nc2ccc(-c3nc(OC[C@H]4CN(CCOCCOCCOCC(=O)N[C@H](C(=O)N5C[C@H](O)C[C@H]5C(=O)NCc5ccc(-c6scnc6C)cc5)C(C)(C)C)CCO4)c4cn[nH]c4n3)cc2)c1` [DAT1], where the note is “HEK293, 1 μM”, the “time of maximal reduction of SGK3 expression” value is reported as no more than 16 h. Also, the “concentration that maximally reduced SGK3 expression” value (HEK293, 8 h time point, dose response) is 2 µM. For the same molecule, under “HEK293, 48 h”, the SGK3 degradation efficiency entry was “+ (“+” = >50% degradation at 10 μM)”, the remaining activity at 0.001 µM turned out to be 94% and the remaining activity at 0.01 µM was 82%. The remaining activity at 0.1 µM (HEK293, 48 h, 0.1 μM) was 70%. For the setting “HEK293, 48 h, 1 μM”, the “reduction of SGK3 expression” value came out at 60% and the remaining activity at 1 µM is 52%. Besides, where the note is “HEK293, 48 h, 10 μM”, the “reduction of SGK3 expression” value came to 75% and the remaining activity at 10 µM was found to be 31%.
Consider `Cc1ccc(F)c(S(=O)(=O)Nc2ccc(-c3nc(OC[C@H]4CN(CCOCCOCC(=O)N[C@H](C(=O)N5C[C@H](O)C[C@H]5C(=O)NCc5ccc(-c6scnc6C)cc5)C(C)(C)C)CCO4)c4cn[nH]c4n3)cc2)c1` [DAT5], for which, where the note is “HEK293, 48 h”, the SGK3 degradation efficiency result is listed as “+ (“+” = >50% degradation at 10 μM)”, the remaining activity at 0.001 µM worked out at 104% and the remaining activity at 0.01 µM came out at 82%. The remaining activity at 0.1 µM (HEK293, 48 h, 0.1 μM) worked out at 92%. Where the note is “HEK293, 48 h, 1 μM”, the remaining activity at 1 µM amounted to 73%. Under “HEK293, 48 h, 10 μM”, the remaining activity at 10 µM came to 36%.
In the case of `Cc1ccc(F)c(S(=O)(=O)Nc2ccc(-c3nc(OC[C@H]4CN(CCOCCOCCOCCOCC(=O)N[C@H](C(=O)N5C[C@H](O)C[C@H]5C(=O)NCc5ccc(-c6scnc6C)cc5)C(C)(C)C)CCO4)c4cn[nH]c4n3)cc2)c1` [DAT6], for the setting “HEK293, 48 h”, the SGK3 degradation efficiency entry is “++ (“++” = >50% degradation at 1 μM)”, the remaining activity at 0.001 µM was determined as 105% and the remaining activity at 0.01 µM was found to be 90%. In addition, the remaining activity at 0.1 µM (HEK293, 48 h, 0.1 μM) was found to be 71%. The remaining activity at 1 µM (HEK293, 48 h, 1 μM) was found to be 44%. In addition, the remaining activity at 10 µM (HEK293, 48 h, 10 μM) was found to be 20%.
As to `Cc1ccc(F)c(S(=O)(=O)Nc2ccc(-c3nc(OC[C@H]4CN(CCOCCOCCOCCOCCOCC(=O)N[C@H](C(=O)N5C[C@H](O)C[C@H]5C(=O)NCc5ccc(-c6scnc6C)cc5)C(C)(C)C)CCO4)c4cn[nH]c4n3)cc2)c1` [DAT7], for the setting “HEK293, 48 h”, the SGK3 degradation efficiency entry is listed as “++ (“++” = >50% degradation at 1 μM)”, the remaining activity at 0.001 µM came to 77% and the remaining activity at 0.01 µM was 80%. Under “HEK293, 48 h, 0.1 μM”, the remaining activity at 0.1 µM was determined as 95%. Moreover, the remaining activity at 1 µM (HEK293, 48 h, 1 μM) was determined as 37%. Further, the remaining activity at 10 µM (HEK293, 48 h, 10 μM) is 29%.
As to `Cc1ccc(F)c(S(=O)(=O)Nc2ccc(-c3nc(OC[C@H]4CN(CCCCCCOCCCCCCOCC(=O)N[C@H](C(=O)N5C[C@H](O)C[C@H]5C(=O)NCc5ccc(-c6scnc6C)cc5)C(C)(C)C)CCO4)c4cn[nH]c4n3)cc2)c1` [DAT10], for the setting “HEK293, 48 h”, the SGK3 degradation efficiency result is recorded as “++ (“++” = >50% degradation at 1 μM)”, the remaining activity at 0.001 µM was determined as 100% and the remaining activity at 0.01 µM was determined as 76%. Further, the remaining activity at 0.1 µM (HEK293, 48 h, 0.1 μM) turned out to be 54%. Besides, the remaining activity at 1 µM (HEK293, 48 h, 1 μM) was found to be 11%. The remaining activity at 10 µM (HEK293, 48 h, 10 μM) is 9%.
For `COc1ccc(Cl)c(S(=O)(=O)Nc2ccc(-c3nc(OC[C@H]4CN(CCCCCCOCCOCCOCCOCC(=O)N[C@H](C(=O)N5C[C@H](O)C[C@H]5C(=O)NCc5ccc(-c6scnc6C)cc5)C(C)(C)C)CCO4)c4c(C)n[nH]c4n3)cc2)c1` [DAT11], where the note is “HEK293, 48 h”, the SGK3 degradation efficiency result is “+++ (“+++” = >50% degradation at 0.1 μM)”, the remaining activity at 0.001 µM is 96% and the remaining activity at 0.01 µM was found to be 97%. For the same molecule, the remaining activity at 0.1 µM (HEK293, 48 h, 0.1 μM) turned out to be 41%. In addition, for the setting “HEK293, 48 h, 1 μM”, the remaining activity at 1 µM was 32%. The remaining activity at 10 µM (HEK293, 48 h, 10 μM) was found to be 29%.
Usually DC50 stands for the concentration giving 50% degradation. For `Cc1ccc(F)c(S(=O)(=O)Nc2ccc(-c3nc(OC[C@H]4CN(CCCCCCOCCOCCOCC(=O)N[C@H](C(=O)N5C[C@H](O)C[C@H]5C(=O)NCc5ccc(-c6scnc6C)cc5)C(C)(C)C)CCO4)c4cn[nH]c4n3)cc2)c1` [SGK3-PROTAC1], the “degradation of endogenous SGK3” value (HEK293, 0.3 μM, within 2 h) is 50%. The “degradation of SGK3” value (HEK293, 8 h, cisSGK3-PROTAC1 up to 3 μM, SGK3-PROTAC1 0.1 μM) was “markedly reduced SGK3 expression”. Moreover, for the setting “HEK293, 48 h”, the SGK3 degradation efficiency result is on record as “++++ (“++++” = >60% degradation at 0.1 μM)”, the remaining activity at 0.001 µM turned out to be 97% and the remaining activity at 0.01 µM was found to be 107%. For the setting “HEK293, 48 h, 0.1 μM”, the “reduction of SGK3 levels” value is on record as 65% and the remaining activity at 0.1 µM worked out at 34%. For the same molecule, for the setting “HEK293, 48 h, 1 μM”, the remaining activity at 1 µM was 24%. In addition, where the note is “HEK293, 48 h, 10 μM”, the remaining activity at 10 µM was found to be 19%. Under setting [1], the “time to increased SGK3 expression after washout” value is 1 h and the “time to return of SGK3 protein to normal levels after washout” value is listed as 10 h. For the same molecule, the Dmax (HEK293, within 8 h, read-out: maximal degradation of SGK3) was determined as 80%. The molecule also came in with a DC50 (SGK3 degradation) of less than 100 nM.
